Among the test systems are A498 renal; BT-549 breast; EKVX NSCLC; KM12 colon; OVCAR-4 ovarian; SF-539 CNS; SNB-19 CNS; TK-10 renal; HT29 colon; SNB-75 CNS.
Holding throughout (assay): NCI tumour cell line growth inhibition, 48 h

“And” between values parts separate entries of the source, which are not always exact repeats. Equal entries are not always repeated.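 Interpolation was linear, between the two tested concentrations surrounding the appropriate level; five concentrations were tested over 48 hours in 96-well plates. GI50 marks 50% less growth. The concentration for full growth arrest is given as TGI.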

Among the data in PubChem BioAssay (NCI) are TGI and GI50 values, retold here.

For the compound `CC(C)(C)OC(=O)NCC(O)CNC(=O)OC(C)(C)C`, the TGI in the experiment on A498 renal, with BT-549 breast, in the experiment with EKVX NSCLC, in the experiment with KM12 colon, with OVCAR-4 ovarian and in the experiment with SF-539 CNS was more than 100 µM in each case. Moreover, the TGI in the experiment with SNB-19 CNS and in the experiment with TK-10 renal was more than 100 µM throughout.
Turning to `OCCN1CN(CCO)CN(c2nc(N3CN(CCO)CN(CCO)C3)nc(N3CN(CCO)CN(CCO)C3)n2)C1`, the GI50 with A498 renal is 1.61 ng/mL; in the experiment on EKVX NSCLC, 1.16 ng/mL; with OVCAR-4 ovarian it was 1.69 ng/mL; in the experiment with SNB-19 CNS, 1.08 ng/mL; in the experiment with TK-10 renal, 2.05 ng/mL. For the same compound, the TGI with A498 renal turned out to be 4.96 ng/mL; in the experiment on BT-549 breast it was 1.55 ng/mL; with EKVX NSCLC it was 2.87 ng/mL; in the experiment with HT29 colon it was 0.63 ng/mL; in the experiment with OVCAR-4 ovarian it was 4.06 ng/mL; in the experiment on SNB-19 CNS it was 0.063 µg/mL. This compound also showed a TGI in the experiment with TK-10 renal of 0.0183 µg/mL.
Regarding `CCN1CCN(c2ccc(Nc3cc(N(C)C(=O)Nc4c(Cl)c(OC)cc(OC)c4Cl)ncn3)cc2)CC1`, the GI50 in the experiment on A498 renal was less than 11.3 nM; with BT-549 breast, 1.04 µM; in the experiment on HT29 colon it was 1.55 µM; with KM12 colon it was 4.47 µM; in the experiment on OVCAR-4 ovarian, 851 nM; in the experiment on SF-539 CNS, 3.11 µM. Also, the GI50 is 4.06 µM with SNB-19 CNS, 5.23 µM with SNB-75 CNS and 2.5 µM in the experiment on TK-10 renal. For the same compound, the TGI in the experiment on A498 renal amounted to 0.062 µM; in the experiment on BT-549 breast it was 21.1 µM; in the experiment on HT29 colon, 3.69 µM; in the experiment on KM12 colon, 18.7 µM; in the experiment on OVCAR-4 ovarian, 12.1 µM; with SF-539 CNS it was 7.99 µM. Moreover, the TGI in the experiment on SNB-19 CNS is 18.7 µM; in the experiment on SNB-75 CNS it was 22.2 µM; in the experiment with TK-10 renal it was 12.5 µM.
Consider `C/C(=C\CCc1ccoc1)CC/C=C(\C)CCCC1=CC(=O)OC1`, for which the GI50 was 1290 nM with A498 renal; 6.24 µM in the experiment on BT-549 breast; 8.44 µM in the experiment with KM12 colon; 13.2 µM in the experiment on SF-539 CNS; 17.7 µM in the experiment on SNB-19 CNS; 4.46 µM in the experiment with SNB-75 CNS. For the same compound, the GI50 in the experiment with TK-10 renal is 16.9 µM. In addition, the TGI is 16.5 µM in the experiment with A498 renal; 25.9 µM in the experiment on BT-549 breast; 23.7 µM with KM12 colon; 40.1 µM in the experiment with SF-539 CNS; more than 100 µM with SNB-19 CNS; 52 µM in the experiment on SNB-75 CNS. In the experiment with TK-10 renal, this compound displayed a TGI of 63.9 µM.
For the compound `CCN(CC)CCOc1ccc(/C=C(\C#N)c2ccc(OCCN(CC)CC)cc2)cc1`, the TGI in the experiment on A498 renal is 32.2 µM; with EKVX NSCLC it was more than 80.6 µM; in the experiment on HT29 colon, 8.58 µM; in the experiment on KM12 colon it was 23.2 µM; with OVCAR-4 ovarian, more than 75.4 µM; in the experiment on SF-539 CNS it was 20.6 µM. Moreover, the TGI in the experiment with SNB-19 CNS was more than 92 µM; in the experiment on SNB-75 CNS, 47.8 µM; in the experiment on TK-10 renal it was more than 91.3 µM.
Consider `Cc1c2cccnc2c(C)c2c1c1cc(CO)ccc1n2C`, for which the GI50 is 104 nM in the experiment on A498 renal; 3.42 µM in the experiment on BT-549 breast; 1.4 µM with EKVX NSCLC; 1.92 µM in the experiment with HT29 colon; 2.33 µM with KM12 colon; 2820 nM in the experiment with OVCAR-4 ovarian. The GI50 in the experiment on SF-539 CNS is 2.49 µM; in the experiment on SNB-19 CNS, 2.67 µM; in the experiment with TK-10 renal it was 2.57 µM. The TGI in the experiment with A498 renal was 0.243 µM; in the experiment with BT-549 breast it was 20.1 µM; in the experiment with EKVX NSCLC, 9.86 µM; with HT29 colon it was 10.6 µM; with KM12 colon, 17 µM; in the experiment on OVCAR-4 ovarian, 10.5 µM. Moreover, the values for the TGI in the experiment with SF-539 CNS, in the experiment with SNB-19 CNS and with TK-10 renal were 11.7 µM, 14.6 µM and 7.77 µM, respectively.
With `Cc1cc(Br)cc(C)c1NC(=O)C(=O)C(C(=O)c1ccc2ccccc2c1)C1OC(=O)c2ccccc21` (stereo unspecified), the TGI in the experiment on A498 renal is 25.6 µM; in the experiment with EKVX NSCLC, 65.3 µM; with HT29 colon it was 41.7 µM; in the experiment on KM12 colon it was 34 µM; in the experiment on OVCAR-4 ovarian, more than 36.4 µM; in the experiment with SF-539 CNS it was 11.2 µM. Moreover, the TGI is 29.3 µM in the experiment on SNB-19 CNS, 43.9 µM with SNB-75 CNS and 36.9 µM with TK-10 renal.
Turning to `C/C1=C\CC[C@@]2(C)O[C@@H]2[C@H]2OC(=O)[C@@H](CN(C)C)[C@@H]2CC1`, the GI50 was 25700 nM in the experiment on A498 renal; 4.8 µM in the experiment with BT-549 breast; 21.1 µM with EKVX NSCLC; 19.9 µM with HT29 colon; 11.8 µM in the experiment with KM12 colon; 16600 nM with OVCAR-4 ovarian. Moreover, the GI50 was 2.45 µM in the experiment on SF-539 CNS, 27.9 µM with SNB-19 CNS and 3.09 µM in the experiment with TK-10 renal. Besides, the TGI in the experiment with A498 renal was determined as 44.9 µM; in the experiment with BT-549 breast, 26.9 µM; with EKVX NSCLC it was 41.8 µM; with HT29 colon it was 61.4 µM; in the experiment on KM12 colon, 29.1 µM; in the experiment with OVCAR-4 ovarian it was 40 µM. In addition, the TGI is 5.62 µM in the experiment with SF-539 CNS, 63 µM in the experiment with SNB-19 CNS and 7.7 µM with TK-10 renal.
With `O=S(O)CCCCSSCC(O)C(O)CSSCCCCS(=O)O` (stereo unspecified), the TGI with A498 renal is more than 100 µM; in the experiment on EKVX NSCLC it was > 100 µM and 93.1 µM; in the experiment with HT29 colon it was 24.4 µM and 27 µM; in the experiment with KM12 colon, 36.4 µM and > 100 µM; in the experiment on OVCAR-4 ovarian, 19.9 µM and 23.8 µM; in the experiment on SF-539 CNS, 69.7 µM and > 100 µM. In addition, the TGI in the experiment on SNB-19 CNS is more than 100 µM; in the experiment on SNB-75 CNS it was > 100 µM and 88.7 µM; in the experiment with TK-10 renal, more than 100 µM.
In the case of `C=CC1CC12C(=O)C1OC2(C)C2C(=O)c3cc4ccccc4cc3C(=O)C12` (stereo unspecified), the GI50 in the experiment with BT-549 breast is 25 µM; in the experiment with EKVX NSCLC it was 16.8 µM; in the experiment on HT29 colon, 27.5 µM; in the experiment with KM12 colon it was 21.8 µM; with SF-539 CNS, 30.2 µM; in the experiment on SNB-19 CNS it was 56.7 µM. Moreover, the GI50 in the experiment on SNB-75 CNS is 35.5 µM; with TK-10 renal, 31.8 µM. For the same compound, the TGI in the experiment on BT-549 breast is 62.6 µM; in the experiment on EKVX NSCLC, more than 100 µM; with HT29 colon, more than 100 µM; in the experiment with KM12 colon, 58.7 µM; in the experiment with SF-539 CNS it was 96.9 µM; in the experiment with SNB-19 CNS it was more than 100 µM. Moreover, the TGI in the experiment on SNB-75 CNS is more than 100 µM; with TK-10 renal, 97.1 µM.
